Measurements reported in publication PMC6356649, “Effect of Pentacyclic Guanidine Alkaloids from the Sponge Monanchora pulchra on Activity of α-Glycosidases from Marine Bacteria” (Marine Drugs, 2019).

Legend:
[1] = target: T1, α-PsGal (recombinant wild-type α-D-galactosidase, GH36) (Pseudoalteromonas sp. KMM 701, UniProt Q19AX0); experiment: p-nitrophenol release at […] nm; assay type: biochemical; conditions: 0.05 M sodium phosphate, pH 7.0, 20 °C; Km only implied (3.32 mM stated as ~5 Km)
T1 construct: recombinant from pET-40b(+) in E. coli Rosetta (DE3); two identical subunits; catalytic Asp451 and Asp516
T1 sequence (Q19AX0 1-710): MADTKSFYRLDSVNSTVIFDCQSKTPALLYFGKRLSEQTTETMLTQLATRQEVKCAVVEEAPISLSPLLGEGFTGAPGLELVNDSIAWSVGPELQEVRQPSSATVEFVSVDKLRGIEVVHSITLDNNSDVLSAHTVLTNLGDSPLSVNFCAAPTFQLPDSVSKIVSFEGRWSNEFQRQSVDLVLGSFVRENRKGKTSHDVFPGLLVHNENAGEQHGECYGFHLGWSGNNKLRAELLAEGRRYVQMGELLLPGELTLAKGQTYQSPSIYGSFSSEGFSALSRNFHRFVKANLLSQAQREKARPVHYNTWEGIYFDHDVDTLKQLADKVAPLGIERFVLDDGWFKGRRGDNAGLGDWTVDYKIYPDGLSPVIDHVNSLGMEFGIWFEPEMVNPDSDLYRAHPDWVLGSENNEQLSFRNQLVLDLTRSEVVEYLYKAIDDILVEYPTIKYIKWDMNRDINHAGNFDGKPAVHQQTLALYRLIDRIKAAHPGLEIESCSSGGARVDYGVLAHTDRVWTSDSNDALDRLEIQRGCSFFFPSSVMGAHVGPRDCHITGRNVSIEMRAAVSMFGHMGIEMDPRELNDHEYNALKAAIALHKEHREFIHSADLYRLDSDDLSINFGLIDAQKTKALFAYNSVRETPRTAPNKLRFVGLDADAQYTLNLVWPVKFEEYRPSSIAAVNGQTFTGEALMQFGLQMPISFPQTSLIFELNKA

[2] = target: T1, α-PsGal (recombinant wild-type α-D-galactosidase, GH36); experiment: inhibition of pNP-α-Gal hydrolysis; assay type: biochemical; conditions: competitive; reaction product; active site; pH 7.0, 20 °C; read-out: decreased the activity on 50%

Row | Structure (SMILES) | p-nitrophenol release at 400 nm [1] | IC50 [2] [µM]
1 | O=[N+]([O-])c1ccc(O[C@H]2O[C@H](CO)[C@H](O)[C@H](O)[C@H]2O)cc1 [4-nitrophenyl-α-D-galactopyranoside] | p-nithrophenil galactopyranoside (pNP-α-Gal) for α-PsGal | 
2 | OC[C@H]1OC(O)[C@H](O)[C@@H](O)[C@H]1O (stereo partly drawn) [D-galactose] |  | 700
